Experimental data from publication PMC7585386 (ACS chemical biology, 2020).

Target: calcium-dependent protein kinase 1 (CDPK1, CDPK1^G; TGGT1_301440) (Toxoplasma gondii, UniProt Q9BJF5)
Assay: kinase assay with recombinant purified enzyme in excess calcium
Format: biochemical

Q: How did the IC50 turn out when Cc1cccc(Cc2nn(C(C)(C)C)c3ncnc(N)c23)c1 [3-MB, 3-MB-PP1] was run?
A: Its IC50 is 79 nM.
